In PMC10818719 (Viruses, 2023):
Read-outs that look alike come from different tables or passages of the source.

Legend:
[1] = tested on: SARS-CoV-2; settings: irradiation with a wave length of λ = 662 nm; cited from earlier work
[2] = tested on: bovine coronavirus (BCoV) strain S379 Riems; type: cell-based, Beta-coronavirus 1; settings: for EC100 (100% Viable Cells): BCoV MOI = 1, with irradiation
[3] = tested on: bovine coronavirus (BCoV); type: cell-based, Beta-coronavirus 1; settings: with irradiation, MDBK cells
[4] = tested on: MDBK cells; experiment: cells; settings: Bos taurus
[5] = tested on: SARS-CoV-2; settings: 1% MB, cited from earlier work
[6] = tested on: BCoV; set-up: method as in ref 48 = [48]; settings: independently of light; cited from earlier work
[7] = tested on: vaccinia viruses; settings: 30 µM of MB + PDI; not virus antigenicity; cited from earlier work
[8] = tested on: MDBK cells; settings: for IC50: no BCoV
[9] = tested on: bovine coronavirus (BCoV); type: cell-based, Beta-coronavirus 1
[10] = tested on: human adenovirus type 5 (HAdV5); set-up: method as in ref 16 = [16]; settings: combined virucidal and irradiation effects; cited from earlier work
[11] = tested on: avian H5N8 influenza virus; settings: cited from earlier work
[12] = tested on: SARS-CoV-2; set-up: method as in ref 19 = [19]; settings: in combination with far red light irradiation; cited from earlier work

CN(C)c1ccc2nc3ccc(=[N+](C)C)cc-3sc2c1 [MB, Methylene blue]
protection of Vero E6 cells from infection [1]: fully protected
EC100 (100% Viable Cells) ([2]; MDBK cells, MTT): 0.15 µM
"dark" antiviral activity towards BCoV ([2]; without irradiation, highest tested concentration 0.3 µM, Figure 7a): not enough to achieve “dark” antiviral activity
concentrations up to which permissive cells were observed [3]: up to 0.075 µM
IC50 ([4]; 24 h): 2.54 µM
IC50 ([4]; 48 h): 1.28 µM
IC50 ([4]; 72 h): 1.8 µM
IC50 ([4]; read-out: IC50, range over the incubation periods): 1.28 to 2.54 µM
SARS-CoV-2 virus load ([5]; gargling or spraying in the nasal cavity, early stages of the infection): sufficient reduction of the SARS-CoV-2 virus load
adverse effects ([5]; local application, even in patients with co-morbidities): lack of adverse effects
concentration at which light-independent antiviral activity was observed [6]: ≥ 1 µM
effect on virus infectivity [7]: loss of virus infectivity

Cc1cc2nc3ccc(N(C)C)cc3[s+]c2cc1N.[Cl-] [TBO, toluidine blue O]
fold higher SI of TBO than MB [2]: 1.7 fold
fold lower EC50 (fold more active) of TBO than MB ([2]; 50% BCoV inactivation, with irradiation): 3.6 fold
EC50 ([2]; BCoV MOI = 1, irradiation 54 J/cm^2 (680 nm) for MB, 99 J/cm^2 (635 nm) for TBO, MDBK cells, MTT, read-out: EC50 (50% Viable Cells)): 0.005 µM
EC100 (100% Viable Cells) ([2]; MDBK cells, MTT): 0.02 µM
SI (IC50/EC50) ([2]; IC50 in MDBK cells / EC50 for direct BCoV inactivation with irradiation): 170
concentration resulting in strong inactivation of BCoV ([2]; irradiation 680 nm and 54 J/cm^2 for MB, 635 nm and 99 J/cm^2 for TBO, Figure 7): ≥ 0.02 µM
fold more effective than MB, based on the active concentrations ([2]; with irradiation): 25 fold
viable cells ([2]; without irradiation, 0.25 µM, Figure 7b): 80%
decrease of the fraction of viable cells (cytotoxic) ([2]; without irradiation, concentration increased above 0.25 µM, Figure 7b): approximately 50%
MNC (maximal nontoxic concentration) ([8]; 24 h incubation): 0.66 µM
IC50 ([8]; 24 h incubation): 0.97 µM
MNC (maximal nontoxic concentration) ([8]; 48 h incubation): 0.35 µM
IC50 ([8]; 48 h incubation): 0.52 µM
MNC (maximal nontoxic concentration) ([8]; 72 h incubation): 0.59 µM
IC50 ([8]; 72 h incubation): 0.85 µM
fold lower IC50 of TBO than MB ([8]; 72 h of incubation): 2.12 fold
concentrations up to which permissive cells were observed [3]: up to 0.01 µM
decrease in the number of viral cDNA [9]: ~ 6 log/mL
Δlog cDNA/mL vs. Virus Control ([9]; TBO 0.02 µM): 1.08 × 10^3
Δlog cDNA/mL vs. Virus Control ([9]; TBO 0.30 µM): 5.91 × 10^6

octa-methylpyridyloxy-substituted Ga phthalocyanine [Ga8]
PDI potential on naked viruses, especially on HAdV5 [10]: remarkable PDI potential

octakis (cholinyl) zinc phthalocyanine [Zn-PcChol8+]
sensitivity of the virus to PDI [11]: sensitive to PDI
infectivity of SARS-CoV-2 [12]: completely destroyed the infectivity

tetra-methylpyridyloxy-substituted Ga phthalocyanine [Ga4]
PDI potential on naked viruses, especially on HAdV5 [10]: remarkable PDI potential
